Values quoted from earlier work as cited in patent US10421710B2, “Substituted phenethylamines with serotoninergic and/or norepinephrinergic activity” (Auspex Pharmaceuticals, Inc., priority 2007, dated 2019).
Values joined by “and” are separate entries in the source; they are usually repeats but may differ in a detail not shown here. Equal entries are not always repeated.

Details: in humans (b8); species not repeated

Row | Structure (SMILES) | half-life (T1/2)
1 | COc1ccc(C(CN(C)C)C2(O)CCCCC2)cc1 (racemic) [venlafaxine, 1-[2-dimethylamino-1-(4-methoxy-phenyl)-ethyl]-cyclohexanol] | ~5 h and 3 to 7 h
2 | CN(C)CC(c1ccc(O)cc1)C1(O)CCCCC1 (centres unmarked) [ODV, 0-desmethylvenlafaxine] | ~11 h and 11 h
